Experimental data from ChEMBL document CHEMBL3352746, “Synthesis and anticancer activity of quinopimaric and maleopimaric acids’ derivatives” (Bioorg Med Chem, 2014).

Tests used:
[1] = Growth inhibition of human SF539 cells; assay type: functional
[2] = system: NCI-H522; assay: Growth inhibition of human NCI-H522 cells; assay type: functional
[3] = Antitumor activity against mouse CA-755 cells implanted in mouse assessed as tumor growth inhibition at 40 mg/kg, ip dosed daily for 5 days measured 1 day after treatment termination; assay type: functional; details: CA-755, ip, route intraperitoneal, read-out: TGI
[4] = Antitumor activity against mouse Ehrlich carcinoma cells implanted in mouse assessed as increase in life span at 50 mg/kg, ip dosed daily for 5 days administered 48 hrs after tumor implantation; assay type: functional; details: route intraperitoneal
[5] = system: Mus musculus; assay: Toxicity in mouse P388 cells implanted mouse assessed as mouse mortality at 20 mg/kg, ip dosed daily for 5 days administered 24 hrs after tumor implantation; assay type: organism-based; design: dose 20 mg/kg, route intraperitoneal; details: in vivo
[6] = Growth inhibition of human OVCAR4 cells; assay type: functional, OVCAR-4
[7] = system: 786-0; assay: Growth inhibition of human 786-0 cells; assay type: functional
[8] = system: Mus musculus; assay: Toxicity in mouse LLC cells implanted mouse assessed as mouse mortality at 40 mg/kg, ip dosed daily for 5 days; assay type: organism-based; design: dose 40 mg/kg, route intraperitoneal; details: in vivo, 120 h
[9] = system: Lewis lung carcinoma cell line; assay: Antitumor activity against mouse LLC cells implanted in mouse assessed as tumor growth inhibition at 40 mg/kg, ip dosed daily for 5 days measured 5 days after treatment termination; assay type: functional; details: 120 h, route intraperitoneal, read-out: TGI
[10] = system: SF-268; assay: Growth inhibition of human SF268 cells; assay type: functional
[11] = system: Lewis lung carcinoma cell line; assay: Antitumor activity against mouse LLC cells implanted in mouse assessed as tumor growth inhibition at 40 mg/kg, ip dosed daily for 5 days measured 19 days after treatment termination; assay type: functional; details: route intraperitoneal, read-out: TGI
[12] = Antitumor activity against mouse AKATOL cells implanted in mouse assessed as tumor growth inhibition at 40 mg/kg, ip dosed daily for 5 days measured 19 days after treatment termination; assay type: functional; details: route intraperitoneal, read-out: TGI
[13] = system: MDA-MB-468; assay: Growth inhibition of human MDA-MB-468 cells; assay type: functional
[14] = system: HL-60(TB); assay: Growth inhibition of human HL-60(TB) cells; assay type: functional
[15] = system: MCF7; assay: Growth inhibition of human MCF7 cells; assay type: functional
[16] = system: HOP-62; assay: Growth inhibition of human HOP62 cells; assay type: functional
[17] = Growth inhibition of human HCT116 cells; assay type: functional
[18] = read-out: pLC50 (the source's name) (converted)

Question: With `COC(=O)[C@]1(C)CCC[C@]2(C)[C@H]3C[C@H]4C(C(C)C)=C[C@]3(CC[C@H]21)[C@@H]1/C(=N/O)CC/C(=N\O)[C@@H]14` as the molecule, how does the GI50 ([1]; SF-539) read?
Answer: 9.12 µM

Question: What about the CC50 ([1]; SF-539, read-out: pLC50 (the source's name) (converted)) of the same molecule?
Answer: 46.8 µM

Question: And the TGI ([1]; SF-539, read-out: pTGI (converted))?
Answer: 21.4 µM

Question: What about the GI50 [2] of the same molecule?
Answer: 3.8 µM

Question: What about the CC50 [2, 18] of the same molecule?
Answer: 93.3 µM

Question: What about the TGI ([2]; read-out: pTGI (converted)) of the same molecule?
Answer: 17.8 µM

Question: And the inhibition in vivo at 40 mg/kg [3]?
Answer: 83%

Question: And the ILS at 50 mg/kg [4]?
Answer: -3%

Question: And the Activity [5]?
Answer: Non-toxic

Question: What about the GI50 ([6]; OVCAR-4) of the same molecule?
Answer: 3.55 µM

Question: What about the CC50 ([6]; OVCAR-4, read-out: pLC50 (converted)) of the same molecule?
Answer: > 100 µM

Question: What about the TGI ([6]; OVCAR-4, read-out: pTGI (converted)) of the same molecule?
Answer: 19.1 µM

Question: And the GI50 [7]?
Answer: 5.75 µM

Question: And the CC50 [7, 18]?
Answer: 53.7 µM

Question: What about the TGI ([7]; read-out: pTGI (converted)) of the same molecule?
Answer: 19.5 µM

Question: And the Activity [8]?
Answer: Non-toxic

Question: And the inhibition in vivo at 40 mg/kg [9]?
Answer: 33%

Question: What about the GI50 [10] of the same molecule?
Answer: 4.37 µM

Question: And the CC50 [10, 18]?
Answer: 55 µM

Question: What about the TGI ([10]; read-out: pTGI (converted)) of the same molecule?
Answer: 17 µM

Question: What about the inhibition in vivo at 40 mg/kg [11] of the same molecule?
Answer: 37%

Question: What about the inhibition in vivo at 40 mg/kg [12] of the same molecule?
Answer: 44%

Question: And the GI50 [13]?
Answer: 4.68 µM

Question: What about the CC50 [13, 18] of the same molecule?
Answer: 64.6 µM

Question: What about the TGI ([13]; read-out: pTGI (converted)) of the same molecule?
Answer: 20 µM

Question: And the GI50 [14]?
Answer: 1950 nM

Question: And the CC50 [14, 18]?
Answer: 36.3 µM

Question: And the TGI ([14]; read-out: pTGI (converted))?
Answer: 4.57 µM

Question: What about the GI50 [15] of the same molecule?
Answer: 1780 nM

Question: And the CC50 [15, 18]?
Answer: 9.55 µM

Question: What about the TGI ([15]; read-out: pTGI (converted)) of the same molecule?
Answer: 4.07 µM

Question: What about the GI50 [16] of the same molecule?
Answer: 15.1 µM

Question: What about the CC50 [16, 18] of the same molecule?
Answer: 95.5 µM

Question: What about the TGI ([16]; read-out: pTGI (converted)) of the same molecule?
Answer: 38 µM

Question: And the GI50 ([17]; HCT-116)?
Answer: 2750 nM

Question: What about the CC50 ([17]; HCT-116, read-out: pLC50 (the source's name) (converted)) of the same molecule?
Answer: 47.9 µM

Question: What about the TGI ([17]; HCT-116, read-out: pTGI (converted)) of the same molecule?
Answer: 8.51 µM
